Laboratory results as given in the NIST ThermoML archive (doi:10.1016/j.jct.2017.03.006).

Assay: xn = mol fraction of the nth substance listed
Conditions: Liquid; for mass density: 293.15 K, Vibrating tube method; for viscosity: Concentric cylinders viscometry

Cc1ccc(C)c(C)c1 [1,2,4-trimethylbenzene] + CCC(C)O
mass density [kg/m3]
Conditions	x2 = 0	x2 = 0.1	x2 = 0.1989	x2 = 0.3011	x2 = 0.4002	x2 = 0.5001	x2 = 0.5997	x2 = 0.6999	x2 = 0.7999	x2 = 0.9
100 kPa	–	–	863.6	857.4	851.4	845	838.2	831.1	823.6	815.3
1000 kPa	875.7	869.9	864.2	858	852	845.6	838.9	831.8	824.3	816
2000 kPa	876.3	870.6	864.9	858.8	852.8	846.4	839.7	832.6	825	816.8
5000 kPa	878.2	872.7	867	860.9	854.9	848.5	841.9	834.8	827.3	819.1
10000 kPa	881.4	875.9	870.3	864.2	858.3	852	845.4	838.3	830.9	822.7
15000 kPa	884.4	879	873.4	867.5	861.6	855.3	848.7	841.7	834.3	826.1
20000 kPa	887.3	882.1	876.5	870.6	864.7	858.5	851.9	845	837.6	829.5
30000 kPa	892.9	887.9	882.4	876.6	870.8	864.6	858.1	851.2	843.9	835.8
40000 kPa	898.2	893.4	888	882.2	876.5	870.4	863.9	857	849.7	841.7
50000 kPa	903.2	898.6	893.2	887.5	881.8	875.7	869.3	862.5	855.2	847.2
60000 kPa	908	903.6	898.3	892.5	886.9	880.9	874.4	867.7	860.4	852.5
70000 kPa	912.6	908.3	903	897.3	891.8	885.8	879.4	872.7	865.5	857.5
80000 kPa	916.9	912.9	907.6	902	896.4	890.4	884	877.3	870.1	862.3
90000 kPa	921.1	917.2	912	906.4	900.9	894.9	888.6	881.9	874.8	866.8
100000 kPa	925.1	921.4	916.2	910.6	905.1	899.2	892.9	886.2	879	871.2
110000 kPa	929	925.4	920.3	914.8	909.2	903.4	897.1	890.4	883.3	875.4
120000 kPa	932.8	929.3	924.2	918.7	913.2	907.4	901.2	894.4	887.3	879.5
130000 kPa	936.4	933.1	928	922.6	917.1	911.3	905.1	898.4	891.2	883.4
140000 kPa	939.9	936.7	931.6	926	920.5	914.9	908.7	901.9	894.7	887

viscosity [mPa·s], 100 kPa
Conditions	x2 = 0	x2 = 0.1001	x2 = 0.2261	x2 = 0.3	x2 = 0.3966	x2 = 0.5298	x2 = 0.6001	x2 = 0.7001	x2 = 0.7997	x2 = 0.9001
303.15 K	0.779	0.774	0.786	0.802	0.858	0.923	1.01	1.16	1.4	1.8
313.15 K	0.692	0.687	0.689	0.698	0.74	–	–	–	–	–
